Assays:
TRP-2-specific CTLs = assay: Activation of cytotoxic T cells in cervical lymph nodes after tape stripping (TRP-2 tetramer flow cytometry); format: in vivo, C57BL/6(B6) mice; conditions: for Ratio of TRP-2-specific CTLs: Example 1(1), cervical lymph nodes one week after application, relative to total mononucleocytes as 100
Description: (§1) The corneal layers of the auricles of C57BL/6(B6) mice were destroyed by repeating a stripping procedure using an adhesive tape in 10 cycles, and an antigen peptide or EP4 agonist was applied as a test substance. The antigen peptide used was a melanoma-specific antigen peptide (Accord K.K. Peptide Business Department; hereinafter abbreviated TRP-2) in solution in 70% ethanol; 10 μg was applied to one side of each auricle. The EP4 agonist used was 11α,15α,-dihydroxy-9-oxo-16-(3-methoxymethylphenyl)-17,18,19,20-tetranol-3,7-dithiaprost-13E-enoic acid (hereinafter abbreviated Compound A-(1)) in solution in a mixed solvent of acetone:olive oil=10:1; 20 μL of 100 μM solution was applied to one side of each auricle. One week after application of the test substance, the cervical lymph nodes were removed. The frequency of TRP-2-specific CTLs was determined relative to the total number of mononucleocytes in the cervical lymph nodes as 100 by a flowcytometric analysis (FACScaliber; Becton, Dickinson and Company.) with a tetramer (Medical & Biological Laboratories Co., Ltd.). Four experimental groups were established: (1) a group undergoing tape stripping (hereinafter abbreviated TS) alone, (2) a group undergoing TS followed by application of TRP-2, (3) a group undergoing TS followed by application of Compound A-(1), and (4) a group undergoing TS followed by application of TRP-2 and Compound A-(1).
Note that the melanoma-specific antigen peptide TRP-2 was synthesized on the basis of a partial sequence described in the aforementioned Non-patent Document 1 (SEQ ID NO. 1) (Accord K.K. Peptide Business Department).
The same procedures as Example 1(1) were followed except that the EP4 agonists used were 4-[(2-{(2R)-2-[(1E,3S)-4-(4-fluorophenyl)-3-hydroxybut-1-enyl]-5-oxopyrrolidin-1-yl}ethyl)sulfanyl]butanoic acid (hereinafter abbreviated Compound L-(1)) and 4-{[2-((1R,2R,3R)-3-hydroxy-2-{(1E,3S)-3-hydroxy-4-[3-(methoxymethyl)phenyl]but-1-enyl}-5-oxocyclopentyl)ethyl]sulfanyl}butanoic acid (hereinafter abbreviated Compound M-(1)); the action of each compound to activate cytotoxic T cells was evaluated. Four experimental groups were established: (1) a group undergoing TS alone, (2) a group undergoing TS followed by application of TRP-2, (3) a group undergoing TS followed by application of TRP-2 and Compound L-(1), and (4) a group undergoing TS followed by application of TRP-2 and Compound M-(1).

HSVgpB-specific CTLs = assay: Activation of cytotoxic T cells in cervical lymph nodes after tape stripping (HSVgpB pentamer flow cytometry); format: in vivo, C57BL/6(B6) mice; conditions: Example 1(3), TS followed by application of HSVgpB and the EP4 agonist
Description: as §1
The same procedures as Example 1(1) were followed except that the antigen peptide used was the herpes simplex virus-specific antigen HSV glycoprotein B (hereinafter abbreviated HSVgpB), and that a flowcytometric analysis with a pentamer (ProImmune Company) was performed, and the action of each compound to activate cytotoxic T cells was evaluated. Five experimental groups were established: (1) a group undergoing TS alone, (2) a group undergoing TS followed by application of HSVgpB, (3) a group undergoing TS followed by application of HSVgpB and Compound A-(1), (4) a group undergoing TS followed by application of HSVgpB and Compound L-(1), and (5) a group undergoing TS followed by application of HSVgpB and Compound M-(1).
Note that the herpes simplex virus-specific antigen peptide HSVgpB was synthesized on the basis of the partial sequence shown by SEQ ID NO. 2 (Virology, Vol. 195, pp. 62-70, (1993)) (ProImmune Company).

B16 melanoma cells = assay: Life-prolonging effect in melanoma-inoculated mice; format: in vivo, B6 mice; conditions: 10 animals in group
Description: 2×10^5 B16 melanoma cells were transplanted to B6 mice in the same manner as Example 3. On day 5 after transplantation, the right auricle of each B6 mouse was treated with each test substance (TRP-2 (10 μg for one side of each auricle), Compound A-(1) (20 μL of 100 μM solution for one side of each auricle) by the same method as Example 3. Ten days later, the left auricle was treated in the same manner, and the mice in each experimental group were examined for mortality. Three experimental groups were established: (1) a group undergoing TS alone, (2) a group undergoing TS followed by application of Compound A-(1), and (3) a group undergoing TS followed by application of TRP-2 and Compound A-(1) (10 animals in each group).

COCc1cccc(C[C@H](O)/C=C/[C@H]2[C@H](O)CC(=O)[C@@H]2SCCCSCC(=O)O)c1 [Compound A-(1), 11α,15α,-dihydroxy-9-oxo-16-(3-methoxymethylphenyl)-17,18,19,20-tetranol-3,7-dithiaprost-13E-enoic acid]
10 animals: number of surviving individuals (B16 melanoma cells; day 16 after B16 melanoma cells inoculation, TS followed by Compound A-(1)) | number of surviving individuals (B16 melanoma cells; day 16 after B16 melanoma cells inoculation, TS followed by TRP-2 and Compound A-(1)) | number of surviving individuals (B16 melanoma cells; day 21 after B16 melanoma cells inoculation, TS followed by Compound A-(1)) | number of surviving individuals (B16 melanoma cells; day 21 after B16 melanoma cells inoculation, TS followed by TRP-2 and Compound A-(1)) | number of surviving individuals (B16 melanoma cells; day 24 after B16 melanoma cells inoculation, TS followed by Compound A-(1)) | number of surviving individuals (B16 melanoma cells; day 24 after B16 melanoma cells inoculation, TS followed by TRP-2 and Compound A-(1)) | number of surviving individuals (B16 melanoma cells; day 27 after B16 melanoma cells inoculation, TS followed by TRP-2 and Compound A-(1)) | number of surviving individuals (B16 melanoma cells; day 29 after B16 melanoma cells inoculation, TS followed by TRP-2 and Compound A-(1)) | number of surviving individuals (B16 melanoma cells; day 31 after B16 melanoma cells inoculation, TS followed by TRP-2 and Compound A-(1)) | number of surviving individuals (B16 melanoma cells; day 33 after B16 melanoma cells inoculation, TS followed by TRP-2 and Compound A-(1)) | number of surviving individuals (B16 melanoma cells; day 35 after B16 melanoma cells inoculation, TS followed by TRP-2 and Compound A-(1)) | number of surviving individuals (B16 melanoma cells; day 37 after B16 melanoma cells inoculation, TS followed by TRP-2 and Compound A-(1)) | number of surviving individuals (B16 melanoma cells; day 38 after B16 melanoma cells inoculation, TS followed by TRP-2 and Compound A-(1))
0.63: Ratio of TRP-2-specific CTLs (TRP-2-specific CTLs; TS followed by application of TRP-2 and Compound A-(1))
0 animals: number of surviving individuals (B16 melanoma cells; day 40 after B16 melanoma cells inoculation, TS followed by Compound A-(1)) | number of surviving individuals (B16 melanoma cells; day 42 after B16 melanoma cells inoculation, TS followed by Compound A-(1)) | number of surviving individuals (B16 melanoma cells; day 44 after B16 melanoma cells inoculation, TS followed by Compound A-(1)) | number of surviving individuals (B16 melanoma cells; day 46 after B16 melanoma cells inoculation, TS followed by Compound A-(1)) | number of surviving individuals (B16 melanoma cells; day 48 after B16 melanoma cells inoculation, TS followed by Compound A-(1)) | number of surviving individuals (B16 melanoma cells; day 50 after B16 melanoma cells inoculation, TS followed by Compound A-(1)) | number of surviving individuals (B16 melanoma cells; day 52 after B16 melanoma cells inoculation, TS followed by Compound A-(1)) | number of surviving individuals (B16 melanoma cells; day 55 after B16 melanoma cells inoculation, TS followed by Compound A-(1)) | number of surviving individuals (B16 melanoma cells; day 57 after B16 melanoma cells inoculation, TS followed by Compound A-(1))
increased: ratio of TRP-2-specific CTLs in cervical lymph nodes compared with the group undergoing TS alone (TRP-2-specific CTLs; TS followed by application of Compound A-(1))
7 animals: number of surviving individuals (B16 melanoma cells; day 27 after B16 melanoma cells inoculation, TS followed by Compound A-(1)) | number of surviving individuals (B16 melanoma cells; day 29 after B16 melanoma cells inoculation, TS followed by Compound A-(1)) | number of surviving individuals (B16 melanoma cells; day 31 after B16 melanoma cells inoculation, TS followed by Compound A-(1)) | number of surviving individuals (B16 melanoma cells; day 33 after B16 melanoma cells inoculation, TS followed by Compound A-(1))
5 animals: number of surviving individuals (B16 melanoma cells; day 44 after B16 melanoma cells inoculation, TS followed by TRP-2 and Compound A-(1))
0.41: Ratio of HSVgpB-specific CTLs (HSVgpB-specific CTLs)
4 animals: number of surviving individuals (B16 melanoma cells; day 46 after B16 melanoma cells inoculation, TS followed by TRP-2 and Compound A-(1))
0.55: Ratio of TRP-2-specific CTLs (TRP-2-specific CTLs; TS followed by application of the test substance alone)
8 animals: number of surviving individuals (B16 melanoma cells; day 40 after B16 melanoma cells inoculation, TS followed by TRP-2 and Compound A-(1)) | number of surviving individuals (B16 melanoma cells; day 42 after B16 melanoma cells inoculation, TS followed by TRP-2 and Compound A-(1))
1 animals: number of surviving individuals (B16 melanoma cells; day 57 after B16 melanoma cells inoculation, TS followed by TRP-2 and Compound A-(1))
2 animals: number of surviving individuals (B16 melanoma cells; day 35 after B16 melanoma cells inoculation, TS followed by Compound A-(1)) | number of surviving individuals (B16 melanoma cells; day 37 after B16 melanoma cells inoculation, TS followed by Compound A-(1)) | number of surviving individuals (B16 melanoma cells; day 38 after B16 melanoma cells inoculation, TS followed by Compound A-(1)) | number of surviving individuals (B16 melanoma cells; day 48 after B16 melanoma cells inoculation, TS followed by TRP-2 and Compound A-(1)) | number of surviving individuals (B16 melanoma cells; day 50 after B16 melanoma cells inoculation, TS followed by TRP-2 and Compound A-(1)) | number of surviving individuals (B16 melanoma cells; day 52 after B16 melanoma cells inoculation, TS followed by TRP-2 and Compound A-(1)) | number of surviving individuals (B16 melanoma cells; day 55 after B16 melanoma cells inoculation, TS followed by TRP-2 and Compound A-(1))
